Results as given in patent publication US4513009A, “Aminoacid derivatives and their therapeutic applications” (priority 1980, dated 1985).
pIC50: −log10 of the molar value. Where two headings read alike, the source gives them in different places.

Legend:
[1] = tested on: licking reflex of mice on a plate heated at 55° C.; test: Hot-plate test (55° C.): specific antalgic effect; assay type: in vivo; details: intravenous; for ED50: Mus musculus, hot plate 55° C.
Protocol: (§1) Licking reflex of mice on a plate heated at 55° C. according to the method of Jacob. and co-workers (Arch. Int. Pharmacodyn. 122, 287-300, 1959: 133, 296-300, 1961).
(b) Specific antalgic effect

[2] = biological target: enkephalinase (enkephalin dipeptidylcarboxypeptidase); test: Determination of enkephalinasic (enkephalin dipeptidylcarboxypeptidasic) activity and effect of inhibitors, striatal membrane fraction, 3H-leucine-enkephalin; assay type: biochemical, rats or mice; details: 10 nM leucine-enkephalin 3H, 25° C., pH 7.4, 15 mn, read-out: 50% inhibitory concentration
Protocol: Determination of the "enkephalinasic" (enkephalin dipeptidylcarboxypeptidasic) activity and determination of the effect of inhibitors.
The enzyme preparation used is a membrane fraction from the striatum of rats or mice.
This fraction is obtained by homogenization at 4° C. in 20 volumes Tris-HCl buffer 0.05M (pH 7.4) followed by two successive centrifugations (1000 g×min. and 200,000 g×min.) at the end of which the sediment of the second centrifugation is retained. It is washed by re-suspension in 10 ml of the buffer followed by centrifugation (200,000 g×min) and the resulting sediment is in turn washed superficially to complete the removal of the soluble enzymes. The resulting membrane fraction is taken up into the buffer at 4° C., to obtain a suspension comprising about 1.5 mg proteins per ml.
An aliquot sample (50 μl) of the membrane suspension is then incubated in a final volume of 100 μl at 25° C. in the presence of 10 nM leucine-enkephalin ^3 H (39 Ci/mmole), previously purified by column chromatography over Porapak Q (100-120 mesh, Waters Assoc.) and […] puromycine, an aminopeptidase inhibitor. Incubation time is generally set at 15 mn. in order to determine the initial rate of the formation of tripeptide Tyr-Gly-Gly-^3 H characteristic of the enkephalin dipeptidylcarboxypeptidasic (enkephalinasic) activity.
Determination of the radioactivity of the tripeptide is effected by liquid scintillation spectrometry. […]

Tail of the mice = details: for potentiation of D Ala2 Met Enkephalin: compound i.v. 100 mg/kg, D Ala2 Met Enkephalin 15 minutes later, ivt, 10 to 30γ/mouse; for specific antalgic effect (tail withdrawal): i.v. 100 mg/kg
[3] = tested on: licking reflex of mice on a plate heated at 55° C.; test: Hot-plate test (55° C.): potentiation of the antalgic effect of D Ala2 Met Enkephalin and Naloxone antagonism; assay type: in vivo; details: for % Increase of the licking time with respect to the animals treated with D Ala2 Met Enkephalin (1): dosage 10 α/mouse; for Potentiation of the effect of a subactive dosage of D Ala2 Met Enkephalin: 0.3γ D Ala2 Met Enkephalin
Protocol: as §1
(a) Potentiation of the antalgic effect of D Ala2 Met Enkephalin
(α) By the intraventricular route (ivt)
(β) By the intravenous route

blood-pressure = test: Hypotensive activity; assay type: in vivo, dogs; details: Canis lupus familiaris; intravenous administration; read-out: lowest dosage producing a decrease of the blood-pressure
From the text: enkephalin-potentiating activity, (LAUBIE M., SCHMITT H., VINCENT M., REMON D. Central cardiovascular effects of Morphinometric peptids in dogs. European Journal of Pharmacology, Vol. 46, 67-71, 1977).

[4] = tested on: phenylbenzoquinone-induced pain; test: Phenylbenzoquinone or writhing test; assay type: in vivo; details: 0.7 mg/kg i.v.; vs controls p<0.01
From the text: 3--Phenylbenzoquinone or "writhing test" according to the method of SIEGMUND and co-workers (Proc. Soc. Expert. Biol. Med. 1957, 95, 729-731).

[5] = ivt, + D Ala2 Met Enkephalin 0.3 α/mouse

With COC(=O)CNC(=O)C(CSC(C)=O)Cc1ccccc1 (racemic) [Compound 19, N-[(RS)-3-acetylthio-2-benzyl-propionyl]glycine methyl ester] as the compound, how does the ED50 [1] read?
Its ED50 is 30 mg/kg.

And the “antalgic effect in the hot (55° C.) plate test” value [1]?
The value was “have an antalgic effect”.

Which results are given for O=C(O)CNC(=O)C(CS)Cc1ccccc1 (racemic) [Compound 20, N-[(R,S)-3-mercapto-2-benzyl-propionyl]glycine]?
pIC50 [2]: 8.30; Increase reaction time (%) (Tail of the mice; 30 mg/kg i.v. + D Ala2 Met Enkephalin (15 γ ivt), 20 mn): 247%; Increase reaction time (%) (Tail of the mice; 30 mg/kg i.v. + D Ala2 Met Enkephalin (15 γ ivt), 45 mn): 353%; Increase reaction time (%) (Tail of the mice; 30 mg/kg i.v. + D Ala2 Met Enkephalin (15 γ ivt), 60 mn): 283%; Increase reaction time (%) (Tail of the mice; 30 mg/kg i.v. + D Ala2 Met Enkephalin (15 γ ivt), 90 mn): 210%; Increase reaction time (%) (Tail of the mice; 30 mg/kg i.v. + D Ala2 Met Enkephalin (15 γ ivt), 120 mn): 203%; Increase reaction time (%) (Tail of the mice; 100 mg/kg i.v. + D Ala2 Met Enkephalin (15 γ ivt), 20 mn): 239%; Increase reaction time (%) (Tail of the mice; 100 mg/kg i.v. + D Ala2 Met Enkephalin (15 γ ivt), 45 mn): 528%; Increase reaction time (%) (Tail of the mice; 100 mg/kg i.v. + D Ala2 Met Enkephalin (15 γ ivt), 60 mn): 321%; Increase reaction time (%) (Tail of the mice; 100 mg/kg i.v. + D Ala2 Met Enkephalin (15 γ ivt), 90 mn): 382%; Increase reaction time (%) (Tail of the mice; 100 mg/kg i.v. + D Ala2 Met Enkephalin (15 γ ivt), 120 mn): 322%; Increase reaction time (%) (Tail of the mice; 100 mg/kg i.v. alone, 20 mn): 59%; Increase reaction time (%) (Tail of the mice; 100 mg/kg i.v. alone, 45 mn): 196%; Increase reaction time (%) (Tail of the mice; 100 mg/kg i.v. alone, 60 mn): 150%; Increase reaction time (%) (Tail of the mice; 100 mg/kg i.v. alone, 90 mn): 88%; Increase reaction time (%) (Tail of the mice; 100 mg/kg i.v. alone, 120 mn): 85%; potentiation of D Ala2 Met Enkephalin (Tail of the mice): potentiate most significantly; specific antalgic effect (tail withdrawal) (Tail of the mice): exhibit a specific antalgic affect

With CC(C)C[C@H](NC(=O)[C@H](Cc1ccccc1)NCC(=O)O)C(=O)O [Compound 2, N-(carboxy-methyl)L.phenylalanine-L.leucine] as the compound, how does the pIC50 [2] read?
The pIC50 was 5.82.

What about the “% Increase of the licking time with respect to the animals treated with D Ala2 Met Enkephalin (1)” value (“% Increase of the licking time” for short) [3, 5] of the same compound?
Its value is 274%.

What about the “Potentiation of the effect of a subactive dosage of D Ala2 Met Enkephalin” value ([3]; ivt) of the same compound?
Its value is “significantly potentiated (p≤0.05)”.

CC(C)C[C@H](NC(=O)[C@@H](Cc1ccccc1)NCC(=O)O)C(=O)O [Compound 5, N-(carboxy-methyl)-D.phenylalanine-L.leucine] was tested. Which pIC50 [2] did it give?
The pIC50 was 4.70.

With CC(C)C[C@H](NC(=O)C(CS)Cc1ccccc1)C(=O)O (stereo partly drawn) [Compound 18, N[(R,S)3-mercapto-2-benzyl-propionyl]-L.leucine] as the compound, how does the minimal effective dose (blood-pressure) read?
Its minimal effective dose is 0.3 mg/kg.

What about the “Increase reaction time (%)” value (Tail of the mice; 100 mg/kg i.v. + D Ala2 Met Enkephalin (30 γ ivt), 20 mn) of the same compound?
Its value is 0%.

What about the “Increase reaction time (%)” value (Tail of the mice; 100 mg/kg i.v. + D Ala2 Met Enkephalin (30 γ ivt), 45 mn) of the same compound?
The value was 280%.

What about the “Increase reaction time (%)” value (Tail of the mice; 100 mg/kg i.v. + D Ala2 Met Enkephalin (30 γ ivt), 60 mn) of the same compound?
Its value is 166%.

What about the “Increase reaction time (%)” value (Tail of the mice; 100 mg/kg i.v. + D Ala2 Met Enkephalin (30 γ ivt), 90 mn) of the same compound?
The value was 87%.

And the “Increase reaction time (%)” value (Tail of the mice; 100 mg/kg i.v. + D Ala2 Met Enkephalin (30 γ ivt), 120 mn)?
Its value is 174%.

And the “Increase reaction time (%)” value (Tail of the mice; 100 mg/kg i.v. alone, 20 mn)?
Its value is 38%.

What about the “Increase reaction time (%)” value (Tail of the mice; 100 mg/kg i.v. alone, 45 mn) of the same compound?
The value was 80%.

What about the “Increase reaction time (%)” value (Tail of the mice; 100 mg/kg i.v. alone, 60 mn) of the same compound?
Its value is 120%.

And the “Increase reaction time (%)” value (Tail of the mice; 100 mg/kg i.v. alone, 90 mn)?
Its value is 61%.

What about the “Increase reaction time (%)” value (Tail of the mice; 100 mg/kg i.v. alone, 120 mn) of the same compound?
The value was 90%.

What about the “potentiation of D Ala2 Met Enkephalin” value (Tail of the mice) of the same compound?
The value was “potentiate most significantly”.

And the “specific antalgic effect (tail withdrawal)” value (Tail of the mice)?
The value was “exhibit a specific antalgic affect”.

With O=C(N[C@@H](COCc1ccccc1)C(=O)O)C(CS)Cc1ccccc1 (stereo partly drawn) [Compound 24, O-Benzyl-N-[(R,S)-3-mercapto-2-benzyl-propionyl]L.serine] as the compound, how does the pIC50 [2] read?
The pIC50 was 8.40.

What about the minimal effective dose (blood-pressure) of the same compound?
The minimal effective dose was 0.3 mg/kg.

CC(C)C[C@H](NC(=O)[C@H](Cc1ccccc1)SC(=O)c1ccccc1)C(=O)O [Compound 27, N-[(S)-2-benzoylthio-3-phenyl-propionyl]-L.leucine] was tested. Which pIC50 [2] did it give?
The pIC50 was 5.30.

Which “% Increase of the licking time” value [3, 5] does the source give for CC(C)C[C@H](NC(=O)[C@@H](S)Cc1ccccc1)C(=O)O [Compound 28, N-[(S)-2-mercapto-3-phenyl-propionyl]-L.leucine] here?
Its value is 400%.

And the “Potentiation of the effect of a subactive dosage of D Ala2 Met Enkephalin” value ([3]; ivt)?
The value was “significantly potentiated (p≤0.05)”.

How did the “% Increase of the licking time” value [3, 5] turn out when COC(=O)[C@H](CC(C)C)NC(=O)[C@H](Cc1ccccc1)SC(C)=O [Compound 29, N-[(S)-2-acetylthio-3-phenyl-propionyl]-L.leucine methyl ester] was run?
Its value is 207%.

What about the “Potentiation of the effect of a subactive dosage of D Ala2 Met Enkephalin” value ([3]; ivt) of the same compound?
The value was “significantly potentiated (p≤0.05)”.

With C[C@H](NC(=O)[C@@H](S)Cc1ccccc1)C(=O)O [Compound 32, N-[(S)-2-mercapto-3-phenyl-propionyl]-L.alanine] as the compound, how does the pIC50 [2] read?
The pIC50 was 7.00.

How did the pIC50 [2] turn out when CC(=O)SCS[C@@H](Cc1ccccc1)C(=O)N[C@@H](CC(C)C)C(=O)O [Compound 33, N-[(S)-2-acetylthiomethylthio-3-phenyl-propionyl]-L.leucine] was run?
Its pIC50 is 6.00.

How did the pIC50 [2] turn out when CC(C)C[C@H](NC(=O)[C@H](Cc1ccccc1)SCCS)C(=O)O [Compound 35, N-[(S)-2-mercapto-ethylthio-3-phenyl-propionyl]-L.leucine] was run?
The pIC50 was 6.40.

What about the “increase of the licking time with respect to the animals treated with D Ala2 Met Enkephalin” value ([3]; compound i.v. 100 mg/kg, D Ala2 Met Enkephalin 0.3γ intraventricular) of the same compound?
The value was 100%.

What about the “% Increase of the licking time” value [3, 5] of the same compound?
The value was 240%.

What about the “% Increase of the licking time” value ([3]; ivt, + D Ala2 Met Enkephalin 0.3 α/mouse + Naloxone 10 mg/kg s.c.) of the same compound?
The value was 18%.

And the “Potentiation of the effect of a subactive dosage of D Ala2 Met Enkephalin” value ([3]; ivt)?
The value was “significantly potentiated (p≤0.05)”.

CC(=O)SCC(Cc1ccccc1)C(=O)NCC(=O)OCc1ccc(F)cc1 (stereo not shown) [Compound 54, N-[3-Acetylthio-2-benzylpropanoyl]glycine(p.fluoro)-benzylester] was tested. Which “protection from phenylbenzoquinone-induced pain” value [4] did it give?
The value was “protect the treated animals from phenylbenzoquinone-induced pain, with a significant difference with respect to the controls, p<0.01”.

And the pIC50 [2]?
The pIC50 was 6.59.

And the ED50 [1]?
The ED50 was 3 mg/kg.

What about the “antalgic effect in the hot (55° C.) plate test” value [1] of the same compound?
Its value is “have an antalgic effect”.

With CC(=O)SCC(Cc1ccccc1)C(=O)NCC(=O)OCC(F)(F)F (stereo not shown) [Compound 55, N-[3-Acetylthio-2-benzylpropanoyl]-glycine-2,2,2-trifluoroethyl ester] as the compound, how does the pIC50 [2] read?
The pIC50 was 6.46.

With CC(=O)SCC(Cc1ccccc1)C(=O)NCC(=O)NCc1ccccc1 (stereo not shown) [Compound 56, N-[3-Acetylthio-2-benzylpropanoyl]glycine benzylamide] as the compound, how does the pIC50 [2] read?
Its pIC50 is 6.40.

How did the pIC50 [2] turn out when O=C(CNC(=O)C(CS)Cc1ccccc1)OCc1ccccc1 (stereo not shown) [Compound 57, N-[3-Mercapto-2-benzyl-propanoyl]glycine benzyl ester] was run?
The pIC50 was 8.11.

How did the pIC50 [2] turn out when O=C(CNC(=O)C(CS)Cc1ccccc1)NCc1ccccc1 (stereo not shown) [Compound 60, N-[3-Mercapto-2-benzyl-propanoyl]glycine benzylamide] was run?
Its pIC50 is 7.52.

Which “antagonism of the potentiated antalgic effect by Naloxone” value ([3]; ivt, compounds + D Ala2 Met Enkephalin) does the source give for C=CCN1CC[C@]23c4c5ccc(O)c4O[C@H]2C(=O)CC[C@@]3(O)[C@H]1C5 [Naloxone, reference compound] here?
The value was “this effect is antagonized by Naloxone”.

“D Ala2 Met Enkephalin [reference compound]” was tested. Which “activity of D Ala2 Met Enkephalin per se” value ([3]; 0.3 α/mouse, ivt) did it give?
The value was “inactive per se”.
